The values below come from patent US8076338B2, “Kinase modulators and methods of use” (Exelixis, Inc., priority 2004, dated 2011).

The target of one experiment is p70S6K (Homo sapiens, UniProt P23443). The experiment can be described thus: Luciferase-coupled chemiluminescence kinase assay (ATP consumption). It counts as biochemical. As to the method:
(§1) One measure of inhibition is Ki. […] The Ki for a compound is determined from the IC50 based on three assumptions. First, only one compound molecule binds to the enzyme and there is no cooperativity. […] Third, the enzymatic rate of the enzyme-inhibitor complex is zero. The rate data (i.e. compound concentration) are fitted to the equation: […]
(§2) Luciferase-Coupled Chemiluminescence Assay Protocol
(§3) Kinase activity is measured as the percent of ATP consumed following the kinase reaction using luciferase-luciferin-coupled chemiluminescence. Reactions were conducted in 384-well white, medium binding microtiter plates (Greiner). Kinase reactions were initiated by combining test compounds, ATP and kinase in a 20 uL volume. The reaction mixture was incubated at ambient temperature for 3 hrs. For p70S6K and/or AktK, 2.5-5 nM of the enzyme was pre-incubated with compound in 20 mM Tris pH 7.5, 10 mM MgCl2, 0.03% TX-100, and 1 mM DTT for 30 minutes at room temperature. Following the kinase reaction, a 20 μL aliquot of luciferase-luciferin mix was added and the chemiluminescence signal measured using a Victor^2 plate reader (Perkin Elmer). The luciferase-luciferin mix contained 50 mM HEPES, pH 7.8, 67 mM oxalic acid (pH 7.8), 5 (or 50) mM DTT, 0.4% Triton X-100, 0.25 mg/mL coenzyme A, 63 μM AMP, 28 μg/1 mL luciferin and 40,000 units/mL luciferase. Total ATP consumption was limited to 25-60% and the IC50 values correlate well with those determined by radiometric assays.

The target of the next experiment is AktK (Homo sapiens, UniProt P31749). The description is as above. The note with it: read-out: AKT-1 IC50. It counts as biochemical. As to the method: as §1, §2, §3
Sequence of AktK (P31749 whole entry): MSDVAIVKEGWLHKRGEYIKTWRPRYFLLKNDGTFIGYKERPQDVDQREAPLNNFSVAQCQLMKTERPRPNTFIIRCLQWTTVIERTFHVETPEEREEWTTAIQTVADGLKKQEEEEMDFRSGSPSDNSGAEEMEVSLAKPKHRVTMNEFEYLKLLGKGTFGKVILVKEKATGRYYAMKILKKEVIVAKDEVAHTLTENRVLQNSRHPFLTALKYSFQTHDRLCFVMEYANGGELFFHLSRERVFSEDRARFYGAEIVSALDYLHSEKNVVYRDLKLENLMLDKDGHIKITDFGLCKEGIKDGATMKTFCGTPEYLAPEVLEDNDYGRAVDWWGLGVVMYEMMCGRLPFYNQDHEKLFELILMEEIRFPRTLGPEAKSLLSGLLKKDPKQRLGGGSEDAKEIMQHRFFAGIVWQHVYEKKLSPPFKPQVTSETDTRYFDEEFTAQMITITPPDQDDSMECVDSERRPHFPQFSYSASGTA

Where two headings read alike, the source gives them in different places.

Sequence of p70S6K (P23443 whole entry): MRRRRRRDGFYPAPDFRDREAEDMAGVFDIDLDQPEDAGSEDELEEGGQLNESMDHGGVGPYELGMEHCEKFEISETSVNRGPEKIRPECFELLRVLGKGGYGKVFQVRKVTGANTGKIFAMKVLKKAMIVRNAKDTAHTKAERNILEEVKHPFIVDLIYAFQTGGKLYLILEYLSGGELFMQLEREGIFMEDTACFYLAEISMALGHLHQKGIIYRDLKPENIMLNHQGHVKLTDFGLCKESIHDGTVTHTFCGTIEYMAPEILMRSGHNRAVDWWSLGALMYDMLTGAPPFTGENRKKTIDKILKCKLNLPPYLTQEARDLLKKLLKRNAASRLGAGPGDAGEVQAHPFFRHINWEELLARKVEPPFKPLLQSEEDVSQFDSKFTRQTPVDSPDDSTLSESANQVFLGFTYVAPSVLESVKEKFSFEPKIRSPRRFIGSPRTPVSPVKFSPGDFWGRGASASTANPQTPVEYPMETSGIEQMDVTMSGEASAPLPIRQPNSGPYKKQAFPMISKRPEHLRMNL

One may read the IC50 as the concentration needed to halve the response being measured. “2-[4-(3-bromo-1H-pyrazolo[3,4-d]pyrimidin-4-yl)piperazin-1-yl]-N,N-diethylpyrimidin-4-amine [Entry 140]”: the IC50 is 0.1 to 1 µM at p70S6K (Table 1, class symbols per key) and 1 to 10 µM on AktK (Table 1, class symbols per key).

On to “3-[4-(3-bromo-1H-pyrazolo[3,4-d]pyrimidin-4-yl)piperazin-1-yl]-5-(butyloxy)-2-methyl-N-(2-pyrrolidin-1-ylethyl)aniline [Entry 208]”, for which the half-inhibitory concentration (IC50) at p70S6K (Table 1, class symbols per key) is less than 0.1 µM; on AktK (Table 1, class symbols per key) it was less than 0.1 µM.

For “3-[4-(3-bromo-1H-pyrazolo[3,4-d]pyrimidin-4-yl)piperazin-1-yl]-5-{[(difluoromethyl)oxy]meth-yl}-2-methyl-N-(2-pyrrolidin-1-ylethyl)aniline [Entry 254]”, the IC50 on p70S6K (Table 1, class symbols per key) is less than 0.1 µM; on AktK (Table 1, class symbols per key) it was less than 0.1 µM.

As for “3-bromo-4-(4-{4-methyl-2′-[(2-pyrrolidin-1-ylethyl)oxy]biphenyl-3-yl}piperazin-1-yl)-1H-pyrazolo[3,4-d]pyrimidine [Entry 269]”, the IC50 against p70S6K (Table 1, class symbols per key) is less than 0.1 µM; at AktK (Table 1, class symbols per key), less than 0.1 µM.

With “3-bromo-4-(4-{4-methyl-3′-[(2-pyrrolidin-1-yl-ethyl)oxy]biphenyl-3-yl}piperazin-1-yl)-1H-pyrazolo[3,4-d]pyrimidine [Entry 290]”, the IC50 on p70S6K and on AktK was less than 0.1 µM each time.

For the molecule “3-bromo-4-{4-[5-{[2,3-difluoro-2-(fluorometh-yl)propyl]oxy}-2-methyl-3-(3-pyrrolidin-1-ylpropyl)phenyl]piperazin-1-yl}-1H-pyrazolo[3,4-d]pyrimidine [Entry 239]”, the IC50 against p70S6K (Table 1, class symbols per key) was less than 0.1 µM; at AktK (Table 1, class symbols per key), less than 0.1 µM.

Turning to “4-[4-(5-chloro-2-methylphenyl)piperazin-1-yl]-1H-pyrazolo[3,4-d]pyrimidin-6-amine [Entry 156]”, the IC50 against p70S6K (Table 1, class symbols per key) is 1 to 10 µM; on AktK (Table 1, class symbols per key), not below 10 µM.

In the case of “4-[4-(5-chloro-2-methylphenyl)piperazin-1-yl]-3-(2-methylpropyl)-1H-pyrazolo[3,4-d]pyrimidine [Entry 355]”, the IC50 is less than 0.1 µM against p70S6K and 1 to 10 µM at AktK.

As to “4-[4-(5-chloro-2-methylphenyl)piperazin-1-yl]-3-(3-pyrrolidin-1-ylpropyl)-1H-pyrazolo[3,4-d]pyrimidine [Entry 400]”, the concentration for half-maximal inhibition (IC50) against p70S6K and on AktK was 1 to 10 µM in each case.

“6-(4-phenylpiperazin-1-yl)-9H-purine [Example 1]”: the IC50 on p70S6K (Table 1, class symbols per key) lay in the range of 1 to 10 µM; on AktK (Table 1, class symbols per key) it was 1 to 10 µM.

`CCc1n[nH]c2ncnc(N3CCN(c4cc(Cl)cc(OCCN5CCCCC5)c4C)CC3)c12` [Entry 17, 4-(4-{5-chloro-2-methyl-3-[(2-piperidin-1-ylethyl)oxy]phenyl}piperazin-1-yl)-3-ethyl-1H-pyrazolo[3,4-d]pyrimidine]: the IC50 on p70S6K (Table 1, class symbols per key) was less than 0.1 µM; at AktK (Table 1, class symbols per key) it was 1 to 10 µM.

As to `Cc1c(CCCN2CCOCC2)cc(Cl)cc1N1CCN(c2ncnc3[nH]nc(Br)c23)CC1` [Entry 18, 3-bromo-4-{4-[5-chloro-2-methyl-3-(3-morpholin-4-ylpropyl)phenyl]piperazin-1-yl}-1H-pyrazolo[3,4-d]pyrimidine], the IC50 at p70S6K (Table 1, class symbols per key) was less than 0.1 µM; at AktK (Table 1, class symbols per key), 0.1 to 1 µM.

`Cc1c(CCCN2CCN(C)CC2)cc(Cl)cc1N1CCN(c2ncnc3[nH]nc(Br)c23)CC1` [Entry 19, 3-bromo-4-(4-{5-chloro-2-methyl-3-[3-(4-methylpiperazin-1-yl)propyl]phenyl}piperazin-1-yl)-1H-pyrazolo[3,4-d]pyrimidine]: the half-inhibitory concentration (IC50) is less than 0.1 µM against p70S6K (Table 1, class symbols per key) and less than 0.1 µM at AktK (Table 1, class symbols per key).

As for `Cc1c(OCCN2CCCCC2)cc(Cl)cc1N1CCN(c2ncnc3[nH]nc(Br)c23)CC1` [Entry 20, 3-bromo-4-(4-{5-chloro-2-methyl-3-[(2-piperidin-1-ylethyl)oxy]phenyl}piperazin-1-yl)-1H-pyrazolo[3,4-d]pyrimidine], the 50% inhibitory concentration (IC50) at p70S6K (Table 1, class symbols per key) is less than 0.1 µM; on AktK (Table 1, class symbols per key), 0.1 to 1 µM.

In the case of `CCc1n[nH]c2ncnc(N3CCN(c4cc(Cl)cc(OCCN5CCN(CC)CC5)c4C)CC3)c12` [Entry 25, 4-[4-(5-chloro-3-{[2-(4-ethylpiperazin-1-yl)ethyl]oxy}-2-methylphenyl)piperazin-1-yl]-3-ethyl-1H-pyrazolo[3,4-d]pyrimidine], the IC50 is less than 0.1 µM on p70S6K (Table 1, class symbols per key) and 1 to 10 µM on AktK (Table 1, class symbols per key).

On to `CCc1n[nH]c2ncnc(N3CCN(c4cc(Cl)cc(OCCCN5CCOCC5)c4C)CC3)c12` [Entry 26, 4-(4-{5-chloro-2-methyl-3-[(3-morpholin-4-ylpropyl)oxy]phenyl}piperazin-1-yl)-3-ethyl-1H-pyrazolo[3,4-d]pyrimidine], for which the IC50 against p70S6K (Table 1, class symbols per key) is less than 0.1 µM; at AktK (Table 1, class symbols per key), 1 to 10 µM.

For `Cc1c(CCCN2CCCCC2)cc(Cl)cc1N1CCN(c2ncnc3[nH]nc(Br)c23)CC1` [Entry 27, 3-bromo-4-{4-[5-chloro-2-methyl-3-(3-piperidin-1-ylpropyl)phenyl]piperazin-1-yl}-1H-pyrazolo[3,4-d]pyrimidine], the IC50 against p70S6K (Table 1, class symbols per key) was less than 0.1 µM; at AktK (Table 1, class symbols per key) it was less than 0.1 µM.

For the molecule `CCN(CC)CCNc1cc(Cl)cc(N2CCN(c3ncnc4[nH]nc(Br)c34)CC2)c1C` [Entry 28, N′-{3-[4-(3-bromo-1H-pyrazolo[3,4-d]pyrimidin-4-yl)piperazin-1-yl]-5-chloro-2-methylphenyl}-N,N-diethylethane-1,2-diamine], the IC50 on p70S6K (Table 1, class symbols per key) is less than 0.1 µM; at AktK (Table 1, class symbols per key), less than 0.1 µM.

For `Cc1c(NCCN2CCCC2)cc(Cl)cc1N1CCN(c2ncnc3[nH]nc(Br)c23)CC1` [Entry 29, 3-[4-(3-bromo-1H-pyrazolo[3,4-d]pyrimidin-4-yl)piperazin-1-yl]-5-chloro-2-methyl-N-(2-pyrrolidin-1-ylethyl)aniline], the half-inhibitory concentration (IC50) against p70S6K (Table 1, class symbols per key) is less than 0.1 µM; on AktK (Table 1, class symbols per key) it was less than 0.1 µM.

Consider `CCc1n[nH]c2ncnc(N3CCN(c4cc(Cl)cc(OCCN5CCN(C)CC5)c4C)CC3)c12` [Entry 30, 4-[4-(5-chloro-2-methyl-3-{[2-(4-methylpiperazin-1-yl)ethyl]oxy}phenyl)piperazin-1-yl]-3-ethyl-1H-pyrazolo[3,4-d]pyrimidine], for which the IC50 against p70S6K (Table 1, class symbols per key) was less than 0.1 µM; on AktK (Table 1, class symbols per key) it was 0.1 to 1 µM.

For `CCc1n[nH]c2ncnc(N3CCN(c4cc(Cl)cc(OCC5CCN(C)CC5)c4C)CC3)c12` [Entry 31, 4-[4-(5-chloro-2-methyl-3-{[(1-methylpiperidin-4-yl)methyl]oxy}phenyl)piperazin-1-yl]-3-ethyl-1H-pyrazolo[3,4-d]pyrimidine], the IC50 was less than 0.1 µM on p70S6K (Table 1, class symbols per key) and 0.1 to 1 µM at AktK (Table 1, class symbols per key).

On to `CCc1n[nH]c2ncnc(N3CCN(c4cccc(OCCN(CC)CC)c4C)CC3)c12` [Entry 32, N,N-diethyl-2-({3-[4-(3-ethyl-1H-pyrazolo[3,4-d]pyrimidin-4-yl)piperazin-1-yl]-2-methylphenyl}oxy)ethanamine], for which the IC50 against p70S6K (Table 1, class symbols per key) was 0.1 to 1 µM; at AktK (Table 1, class symbols per key), 1 to 10 µM.

Consider `CCN(CC)CCOc1cc(Cl)cc(N2CCN(c3ncnc4c3c(C(F)(F)F)nn4C(C)(C)C)CC2)c1C` [Entry 33, 2-[(5-chloro-3-{4-[1-(1,1-dimethylethyl)-3-(tri-fluoromethyl)-1H-pyrazolo[3,4-d]pyrimidin-4-yl]piperazin-1-yl}-2-methylphenyl)oxy]-N,N-diethylethanamine], for which the half-inhibitory concentration (IC50) against p70S6K (Table 1, class symbols per key) is 1 to 10 µM; on AktK (Table 1, class symbols per key) it was 1 to 10 µM.

`CCN(CC)CCOc1cc(Cl)cc(N2CCN(c3ncnc4[nH]nc(C(F)(F)F)c34)CC2)c1C` [Entry 34, 2-[(5-chloro-2-methyl-3-{4-[3-(trifluoromethyl)-1H-pyrazolo[3,4-d]pyrimidin-4-yl]piperazin-1-yl}phenyl)oxy]-N,N-diethylethanamine]: the half-maximal inhibitory concentration (IC50) against p70S6K (Table 1, class symbols per key) was less than 0.1 µM; at AktK (Table 1, class symbols per key) it was 0.1 to 1 µM.

As to `CCc1n[nH]c2ncnc(N3CCN(c4cc(Cl)cc(OCCCN5CCCC5)c4C)CC3)c12` [Entry 35, 4-(4-{5-chloro-2-methyl-3-[(3-pyrrolidin-1-ylpropyl)oxy]phenyl}piperazin-1-yl)-3-ethyl-1H-pyrazolo[3,4-d]pyrimidine], the half-maximal inhibitory concentration (IC50) against p70S6K (Table 1, class symbols per key) was less than 0.1 µM; on AktK (Table 1, class symbols per key), 0.1 to 1 µM.

Regarding `Cc1ccccc1N1CCN(c2ncnc3[nH]nc(C)c23)CC1` [Entry 319, 3-methyl-4-[4-(2-methylphenyl)piperazin-1-yl]-1H-pyrazolo[3,4-d]pyrimidine], the IC50 against p70S6K was less than 0.1 µM.

On to `CC(C)=CCc1n[nH]c2ncnc(N3CCN(c4cc(Cl)ccc4C)CC3)c12` [Entry 347, 4-[4-(5-chloro-2-methylphenyl)piperazin-1-yl]-3-(3-methylbut-2-en-1-yl)-1H-pyrazolo[3,4-d]pyrimidine], for which the IC50 against p70S6K is less than 0.1 µM.

Molecule `Cc1ccc(Cl)cc1N1CCN(c2ncnc3[nH]nc(-c4ccc(OCC5CCNCC5)cc4)c23)CC1` [Entry 359, 4-[4-(5-chloro-2-methylphenyl)piperazin-1-yl]-3-{4-[(piperidin-4-ylmethyl)oxy]phenyl}-1H-pyrazolo[3,4-d]pyrimidine] had a 50% inhibitory concentration (IC50) against p70S6K of 0.1 to 1 µM.

For the molecule `CCc1n[nH]c2ncnc(N3CCN(c4cccc(Cl)c4)CC3C(=O)NC)c12` (stereo not drawn) [Entry 362, 4-(3-chlorophenyl)-1-(3-ethyl-1H-pyrazolo[3,4-d]pyrimidin-4-yl)-N-methylpiperazine-2-carboxamide], the IC50 against p70S6K was 1 to 10 µM.
